“Also recorded” adds a separate entry of the source.
Key:
[1] = tested on: LNCaP tumor; assay: Na SQ and TQ line profiles of LNCaP tumor in vivo; conditions: 18 hours after i.v. injection of 1 mg in the femoral vein
Procedure: After preliminary studies, experiments were performed where proton, Na SQ and Na TQ images and line profiles were acquired at baseline and following bolus i.v. injection of chemotherapy. Imaging results for a LNCaP tumor in vivo, both at baseline and 18 hours after i.v. injection of 1 mg of taxotere in the femoral vein were examined.

[2] = human single loading doses; cited from earlier work
[3] = tested on: mouse; conditions: in vivo; cited from earlier work
[4] = tested on: carcinogen (MNU) induced breast tumor; assay: Weighted and non-weighted sodium MRI of carcinogen (MNU) induced breast tumor; assay type: in vivo, Sprague Dawley rat; conditions: rat
Procedure: In another example, a breast cancer tumor is imaged in an animal model. This image verifies that the imaging diagnostic described herein responds to the treatment of a different animal model when using a different tissue type as the neoplastic target. The tumor was induced by injecting a Sprague Dawley rat with carcinogen MNU. When the tumor was palpable and measured in excess of 5 mm in diameter, the rat was imaged using weighting and non-weighting pulse sequences. One rat was given a 3 mg intra venous injection of taxotere and a second was given a 6 mg injection of taxotere. […] Both the images became brighter, with the most dramatic proportional change occurring in the weighted image.

CC(=O)O[C@@]12CO[C@@H]1C[C@H](O)[C@@]1(C)C(=O)[C@H](O)C3=C(C)[C@@H](OC(=O)[C@H](O)[C@@H](NC(=O)OC(C)(C)C)c4ccccc4)C[C@@](O)([C@@H](OC(=O)c4ccccc4)[C@H]21)C3(C)C [taxotere]
change of SQ line profile [1]: did not significantly vary | change of TQ line profiles [1]: substantial increase | peak plasma level [2]: about 5 μMol/L | plasma level for the first 9.6 hrs [2]: > 50 nM | plasma level for the first 25 hrs [2]: > 10 nM | reported toxic mouse dose [3]: 4.5 mg | response of sodium MR images to treatment ([4]; 3 mg intra venous injection): Only the latter showed a response | response of sodium MR images to treatment ([4]; 6 mg intravenous injection): showed a response; also recorded: become brighter after the treatment

From patent US6681132B1, “Sodium magnetic reasonance imaging used in diagnosing tumors and assessing response to treatment” (The Trustees of Columbia University in the City of New York, priority 1999, dated 2004)
